Experimental data from PubChem BioAssay AID463074 (Broad Institute, 2010).
Calls of active or inactive are those of the source.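 Rule for the calls: active = AC50 no more than tenfold above the top dose tested, or full inhibition at every dose with a flat fit (cut at about 19 µM in these data); inconclusive = flat curve fit with inhibition between 30% and 70%, or poor fit; inactive = AC50 more than tenfold above the top dose tested.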

Tested on: HMLE_sh_eGFP viability, CellTiter-Glo luminescence, 72 h
Assay: cytotoxicity in HMLE control line with eGFP shRNA, dose response, counter-screen for HMLE_sh_ECad selective toxicity project, cell-based, HMLE_sh_eGFP, luminescence (AID 463074);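 note: counterscreen control line to flag general toxicity for the HMLE_sh_ECad screen; potency for loss of viability as luminescence drops below DMSO wells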

SMILES | AC50
CC(C)N1CCc2c(sc(NC(=O)c3cc(-c4cccs4)nc4ccccc34)c2C(N)=O)C1 | 12.9 µM
Cc1nn(CCc2nn[nH]n2)c2nc(-c3ccc(C4CCCCC4)cc3)cc(C(F)(F)F)c12 | 2.7 µM
COCCNc1nnc(SC(C)C(=O)Nc2ccc(-c3nc4ccc(C)cc4s3)cc2)s1 (stereo unspecified) | 10.5 µM
O=C1c2ccccc2NC(c2ccc(-c3ccc(Br)cc3)o2)N1O (stereo unspecified) | 5.06 µM
C=C(C(=O)c1ccccc1)C(C)C(=C)C(=O)c1ccccc1 | 1.85 µM
O=C(Nc1ccc(O)c(-c2nc3ccccc3o2)c1)C1(c2ccc(Br)cc2)CCCC1 | > 19.5 µM (inactive)
